Experimental data taken from US20070281992A1, “COMBINATION OF GYRASE B INHIBITORS AND PROTEIN SYNTHESIS INHIBITORS AND USES THEREOF” (priority 2006, published 2007).
Read-outs that look alike come from different tables or passages of the source.

Tests used:
Format in all cases: cell-based
[1] = test system: Unconfirmed Vancomycin-intermediate Staphylococcus epidermidis Isolates; experiment: MIC assay (NCCLS broth dilution), unconfirmed VISE isolates; conditions: Staphylococcus epidermidis; 3 unconfirmed VISE isolates; combinations at 2.5:1
Procedure: (§1) Antibiotics: novobiocin, tetracycline, minocycline, oxacillin, and vancomycin were all purchased from Sigma-Aldrich. Linezolid was obtained from Pfizer, Inc. Novobiocin/tetracycline and novobiocin/minocycline were tested in a 2.5:1 ratio to mimic the serum levels. (Vavra, J. J., 1967, Development of resistance to novobiocin, tetracycline, and novobiocin-tetracycline combinations in Staphylococcus aureus populations, J. Bacteriol 93(3):801). Compounds were tested across a concentration range consisting of 11 two-fold serial dilutions of test agent.
(§2) Stock solutions were prepared in sterile deionized water; novobiocin stock concentration was 1600 μg/mL and all other drugs stock solutions were prepared at 640 μg/mL. The stock solutions were allowed to sit at room temperature for one hour to auto-sterilize prior to use in the test. All compounds were in solution in water. The control agent was vancomycin hydrochloride, Sigma Chemical Lot # 015K0825.
(§3) The test organisms for the assay were 52 MSSA, 52 MRSA, 8 VISA, 7 VISE, and 3 LRSA isolates. Quality control strains included Staphylococcus aureus 0100 (ATCC 29213) and Enterococcus faecalis (ATCC 29212).
(§4) The MIC assay was performed according to published NCCLS guidelines. (National Committee for Clinical Laboratory Standards, Methods for Dilution Antimicrobial Susceptibility Tests for Bacteria that Grow Aerobically; Approved Standard-Sixth Edition, NCCLS Document M7-A6 [ISBN 1-56238-486-4], NCCLS, 940 West Valley Road, Suite 1400, Wayne, Pa. 19087-1898 USA, 2003). The test medium was Mueller Hinton II Broth for all organisms.

[2] = test system: Vancomycin-intermediate Staphylococcus epidermidis Isolates; experiment: MIC assay (NCCLS broth dilution), VISE isolates; conditions: for MIC: read-out: Minimal Inhibitory Concentration
Procedure: as §1, §2, §3, §4

[3] = test system: Methicillin-Susceptible Staphylococcus aureus Isolates; experiment: MIC assay (NCCLS broth dilution), MSSA clinical isolates; conditions: for MIC: read-out: Minimal Inhibitory Concentration
Procedure: as §1, §2, §3, §4

[4] = Staphylococcus aureus, 52 MSSA isolates, combinations at 2.5:1, given as NB/partner

Cc1onc(-c2ccccc2)c1C(=O)N[C@@H]1C(=O)N2[C@@H]1SC(C)(C)[C@@H]2C(=O)O [OX, oxacillin]
0.12 µg/mL: MIC ([3]; Staphylococcus aureus, MSSA isolate 133, 03MAR06) | MIC ([3]; Staphylococcus aureus, MSSA isolate 779, 22FEB06) | MIC ([3]; Staphylococcus aureus, MSSA isolate 785, 22FEB06) | MIC ([3]; Staphylococcus aureus, MSSA isolate 792, 03MAR06) | MIC ([3]; Staphylococcus aureus, MSSA isolate 995, 03MAR06) | MIC ([3]; Staphylococcus aureus, MSSA isolate 998, 03MAR06) | MIC ([3]; Staphylococcus aureus, MSSA isolate 1132, 03MAR06) | MIC ([3]; Staphylococcus aureus, MSSA isolate 1654, 03MAR06) | MIC ([3]; Staphylococcus aureus, MSSA isolate 1728, retest 09MAR06)
32 µg/mL: MIC50 [1]
.12 to .5 µg/mL: MIC Range ([3]; 52 MSSA isolates, Mueller Hinton II Broth, combinations at 2.5:1, given as NB/partner)
8 µg/mL: MIC ([2]; Staphylococcus epidermidis, VISE isolate 2020, 09MAR06)
0.25 µg/mL: MIC ([3]; Staphylococcus aureus, MSSA isolate 134, 03MAR06) | MIC ([3]; Staphylococcus aureus, MSSA isolate 135, 03MAR06) | MIC ([3]; Staphylococcus aureus, MSSA isolate 753, 22FEB06) | MIC ([3]; Staphylococcus aureus, MSSA isolate 754, 22FEB06) | MIC ([3]; Staphylococcus aureus, MSSA isolate 754, 24FEB06) | MIC ([3]; Staphylococcus aureus, MSSA isolate 755, 22FEB06) | MIC ([3]; Staphylococcus aureus, MSSA isolate 756, 03MAR06) | MIC ([3]; Staphylococcus aureus, MSSA isolate 780, 03MAR06) | MIC ([3]; Staphylococcus aureus, MSSA isolate 781, 03MAR06) | MIC ([3]; Staphylococcus aureus, MSSA isolate 782, 22FEB06) | MIC ([3]; Staphylococcus aureus, MSSA isolate 783, 22FEB06) | MIC ([3]; Staphylococcus aureus, MSSA isolate 784, 22FEB06) | MIC ([3]; Staphylococcus aureus, MSSA isolate 786, 22FEB06) | MIC ([3]; Staphylococcus aureus, MSSA isolate 787, 22FEB06) | MIC ([3]; Staphylococcus aureus, MSSA isolate 788, 22FEB06) | MIC ([3]; Staphylococcus aureus, MSSA isolate 789, 24FEB06) | MIC ([3]; Staphylococcus aureus, MSSA isolate 790, 24FEB06) | MIC ([3]; Staphylococcus aureus, MSSA isolate 791, 24FEB06) | MIC ([3]; Staphylococcus aureus, MSSA isolate 793, 24FEB06) | MIC ([3]; Staphylococcus aureus, MSSA isolate 794, 24FEB06) | MIC ([3]; Staphylococcus aureus, MSSA isolate 994, 22FEB06) | MIC ([3]; Staphylococcus aureus, MSSA isolate 996, 22FEB06) | MIC ([3]; Staphylococcus aureus, MSSA isolate 997, 22FEB06) | MIC ([3]; Staphylococcus aureus, MSSA isolate 999, 22FEB06) | MIC ([3]; Staphylococcus aureus, MSSA isolate 1000, 24FEB06) | MIC ([3]; Staphylococcus aureus, MSSA isolate 1001, 24FEB06) | MIC ([3]; Staphylococcus aureus, MSSA isolate 1003, 03MAR06) | MIC ([3]; Staphylococcus aureus, MSSA isolate 1005, 24FEB06) | MIC ([3]; Staphylococcus aureus, MSSA isolate 1006, 24FEB06) | MIC ([3]; Staphylococcus aureus, MSSA isolate 1007, 24FEB06) | MIC ([3]; Staphylococcus aureus, MSSA isolate 1008, 24FEB06) | MIC ([3]; Staphylococcus aureus, MSSA isolate 1134, 24FEB06) | MIC ([3]; Staphylococcus aureus, MSSA isolate 1656, 03MAR06) | MIC ([3]; Staphylococcus aureus, MSSA isolate 1662, 03MAR06) | MIC ([3]; Staphylococcus aureus, MSSA isolate 1663, 03MAR06) | MIC ([3]; Staphylococcus aureus, MSSA isolate 1666, 03MAR06) | MIC ([3]; Staphylococcus aureus, MSSA isolate 1667, 03MAR06) | MIC ([3]; Staphylococcus aureus, MSSA isolate 1668, 03MAR06) | MIC ([3]; Staphylococcus aureus, MSSA isolate 1671, 03MAR06) | MIC ([3]; Staphylococcus aureus, MSSA isolate 1728, 03MAR06) | MIC50 [3, 4] | MIC90 [3, 4]
16 µg/mL: MIC ([2]; Staphylococcus epidermidis, VISE isolate 2022, 03MAR06)
0.5 µg/mL: MIC ([2]; Staphylococcus epidermidis, VISE isolate 2021, 09MAR06) | MIC ([3]; Staphylococcus aureus, MSSA isolate 1002, 24FEB06) | MIC ([3]; Staphylococcus aureus, MSSA isolate 1009, 24FEB06) | MIC ([3]; Staphylococcus aureus, MSSA isolate 1131, 24FEB06) | MIC ([3]; Staphylococcus aureus, MSSA isolate 1133, 24FEB06)
2 µg/mL: MIC ([2]; Staphylococcus epidermidis, VISE isolate 2023, 03MAR06) | MIC50 ([2]; Staphylococcus epidermidis, 4 VISE isolates, combinations at 2.5:1)
0.5 to 16 µg/mL: MIC Range ([2]; 4 VISE isolates, combinations at 2.5:1)
